Results from PMC12459184, “Design, synthesis, and bioevaluation of pyrazole-containing tubulin polymerisation inhibitors based on conformational constraint strategy” (Journal of Enzyme Inhibition and Medicinal Chemistry, 2025).
Read-outs that look alike come from different tables or passages of the source.

What was measured:
PC-3 cells [1] = test: Colony formation assay; assay type: cell-based, human; details: PC-3, 20 nM, 24 h treatment then one week culture
Description: Colony formation assay was selected to assess the effect of 4k and 5a on clonogenic formation of PC-3 cells.
PC-3 cells in logarithmic phase were harvested and seeded onto 12-well cell plates at a density of 1 × 10^3 cells per well. […] Then the medium was removed, and cells were washed with PBS and added fresh medium containing 10% FBS. The cells were continued to culture for one week. The medium was removed, and the cells were fixed with 4% paraformaldehyde and subsequently stained with crystal violet solution. Images were taken and analysed by Fiji/ImageJ software.

PC-3 cells [2] = test: Transwell migration assay; assay type: cell-based, human; details: 24 h, relative to untreated cells
Procedure: Transwell migration assay was used on PC-3 cells to further investigate the effect of 4k and 5a on cell migration.
PC-3 cells in logarithmic phase were harvested and seeded onto six-well cell plates at a density of 4 × 10^4 cells per well, and were cultured for 24 h. […] Then these cells were harvested and seeded onto the top chambers of transwell filters (Corning) at a concentration of 4 × 10^4 cells with 200 μL of FBS-free medium per well in 24-well culture plates, while the bottom chambers were added 600 μL of medium containing 10% FBS. The cells were cultured for additional 24 h, then the cells that migrated to the bottom of the top chambers were fixed with 4% paraformaldehyde and subsequently stained with crystal violet solution. Images were taken by an inverted microscope and analysed by Fiji/ImageJ software.

PC-3 cells [3] = test: Cell cycle analysis by flow cytometry; assay type: cell-based, human; details: 24 h, vehicle 15%
Procedure: The G2/M phase of cell cycle involves mass physiological activities of microtubules, and tubulin polymerisation inhibitors could arrest cell cycle in G2/M phase by inhibiting microtubule polymerisation.
PC-3 cells in logarithmic phase were harvested and seeded onto 6-well cell plates at a density of 2.5 × 10^5 cells per well, and were cultured for 24 h. […] The cells were digested using trypsin and the suspended cells were harvested. Then the cells were washed with PBS and fixed in 75% ice-cold ethanol at 4 °C overnight. The fixed cells were harvested by centrifugation and washed with PBS, resuspended in 535 μL buffer containing 10 μL RNase (50 ×) and 25 μL PI (20 ×). After incubation at 37 °C in the dark for 30 min, the samples were filtered by nylon screen and detected by FACScan flow cytometry (BectoneDickinson, Franklin Lakes, NJ, USA).

cleaved caspase-9 = test: Western blot assay, cleaved caspase-9; assay type: cell-based, human; details: PC-3 cells, dose-dependent manner
Procedure: The expression of cell apoptosis-related proteins (Bax, Bcl-2, and cleaved caspase-9) after treatment of 4k and 5a was also measured by western blot assay.
PC-3 cells in logarithmic phase were harvested and seeded onto culture plates, and were cultured for 24 h. […] The proteins of PC-3 cells were extracted by RIPA buffer containing 1% PMSF (Beyotime Biotechnology, China). The protein concentration was measured by BCA Assay Kit (SEVEN Biotech, China). Equal amounts and concentration of protein were diluted in 5× loading buffer (Beyotime, China) and denatured by boiled for 5 min. Protein samples were separated on 12.5% SDS-PAGE gels (EpiZyme, China) and transferred to PVDF membranes (Millipore Corporation, Billerica, MA, USA). The membranes were blocked in QuickBlockTM Block Buffer (SEVEN Biotech, China) for 10 min at room temperature. Then the membranes were incubated with the primary antibodies overnight at 4 °C, including Cyclin B1 (1:2000, Proteintech, China), CDK1 (1:5000, Proteintech, China), BAX (1:5000, Proteintech, China), Bcl2 (1:1000, Proteintech, China), Caspase 9/p35/p10 (1:1000, Proteintech, China), and β-actin (1:20 000, Proteintech, China). […] The protein signals were detected by using chemiluminescent reagents kit (NCM Biotech, China) and visualised with ChemiDocImaging System (Tanon 5200, China). Protein expressions was quantified by using Fiji/ImageJ software.

MCF-7 cells = test: MTT antiproliferative assay, MCF-7; assay type: cell-based; details: Homo sapiens, read-out: IC50 (μM) ± SD MCF-7
Procedure: The in vitro antiproliferative activities of all target compounds 4a−k, 5a−h, and 6a−h were assayed by MTT method using human gastric cancer cell line SGC-7901 and human breast cancer cell line MCF-7.
All cell lines tested in this study were purchased from the American Type Culture Collection (ATCC, Manassas, VA). SGC-7901 (human gastric adenocarcinoma), HCT-116 (human colon carcinoma), and A549 (human pulmonary carcinoma) cells were cultured in RPMI-1640 medium containing 10% foetal serum (FBS) and 1% penicillin-streptomycin solution (100×). MCF-7 (human breast carcinoma) cells were cultured in DMEM medium containing 10% foetal serum (FBS) and 1% penicillin-streptomycin solution (100×). PC-3 (human prostate carcinoma) cells were cultured in Ham’s F-12K medium containing 10% foetal serum (FBS) and 1% penicillin-streptomycin solution (100×). All cells were cultured at 37 °C in a humidified atmosphere containing 5% CO2.
(§1) Cells grown in logarithmic phase were harvested and seeded onto 96-well cell plates at a density of 4 ∼ 5 × 10^3 cells per well (various from cell type) and were cultured for 24 h. Different concentrations of compounds were added into the wells, and the cells were cultured for another 72 h. The medium was removed, then 20 μL of MTT (5 mg/mL in PBS) was added to each well and the cells were incubated for 4 h. 150 μL of DMSO was added to each well to dissolve the formazan, and the absorbance at 490 nm of each well was measured by a microplate reader. IC50 values were calculated by SPSS software.

human liver cells (L02) = test: MTT toxicity assay, normal cells L02; assay type: cell-based; details: for IC50: Homo sapiens, read-out: IC50 (μM) ± SD L02; for SI-L: SI-L = IC50 (L02)/IC50 (PC-3)
Procedure: The toxicity of compounds 4k and 5a was also tested by using human umbilical vein endothelial cells (HUVEC) and human liver cells (L02).
as §1

SMILES	colony formation compared to control (PC-3 cells [1])	percentage of migrated cells (PC-3 cells [2]; PC-3, 5 nM)	percentage of migrated cells (PC-3 cells [2]; PC-3, 10 nM)	percentage of migrated cells (PC-3 cells [2]; PC-3, 20 nM)	proportion of cells in G2/M phase (PC-3 cells [3]; 70 nM)	proportion of cells in G2/M phase (PC-3 cells [3]; 100 nM)	level of cleaved caspase-9 (cleaved caspase-9)	IC50 (MCF-7 cells; MCF7, 72 h)	IC50 (human liver cells (L02); 72 h)	SI-L (human liver cells (L02))	proportion of cells in G2/M phase (PC-3 cells [3]; 10–40 nM)	IC50 (MCF-7 cells; MCF7, 72 h drug exposure, MTT assay)	IC50 (human liver cells (L02); 72 h drug exposure, MTT assay, normal cells)
COc1cc(C2=NCC(=O)Nc3cn(-c4ccccc4)nc32)cc(OC)c1OC [5a, 2-Phenyl-8–(3,4,5-trimethoxyphenyl)-2,6-dihydropyrazolo[4,3-e][1,4]diazepin-5(4H)-one]	34.9%	53.6%	49.1%	27.8%	35%	71%	increase	1.78 ± 0.617 µM	0.204 ± 0.056 µM	35.00			
COc1cc(C(=O)c2nn(-c3ccc(N)cc3)cc2N)cc(OC)c1OC [4k, (4-amino-1–(4-aminophenyl)-1H-pyrazol-3-yl)(3,4,5-trimethoxyphenyl)methanone]	5.7%	60.4%	25.7%	18.7%			increase			1.713	33–71%	0.031 ± 0.005 µM	0.025 ± 0.008 µM
